Source: publication PMC7340027 (Cell Reports, 2020)
Where two headings read alike, the source gives them in different places. Marks after values point to notes of the source that are not given here.

Legend:
SARS-CoV-2 [1] = experiment: microbe, parasite or virus in culture; assay type: cell-based, SARS-CoV-2 clinical isolate 2019-nCoV/USA-WA1/2020
SARS-CoV-2 [2] = experiment: microbe, parasite or virus in culture; assay type: cell-based, SARS-CoV-2 clinical isolate 2019-nCoV/USA-WA1/2020; remark: listed apart in the source
Vero E6 cells [3] = system: Vero E6 cells
Calu3 2B4 cells [4] = system: Calu3 2B4 cells
Calu3 2B4 cells [5] = conditions: human
SARS-CoV-2 [6] = assay type: cell-based, SARS-CoV-2 clinical isolate 2019-nCoV/USA-WA1/2020
HAE cultures [7] = conditions: female, human
Vero E6 cells [8] = system: Vero E6 cells; remark: listed apart in the source
HAE cultures [9] = system: HAE cultures
[10] = Severe acute respiratory syndrome coronavirus 2, Calu-3 2B4, read-out: EC90 (infectious viral titer)
[11] = Severe acute respiratory syndrome coronavirus 2, Calu-3 2B4, read-out: EC90 (qRT-PCR)
[12] = Severe acute respiratory syndrome coronavirus 2, Calu-3 2B4, read-out: Genome copy EC50
[13] = Severe acute respiratory syndrome coronavirus 2, Calu-3 2B4, read-out: Plaque assay EC50

| SMILES | EC90 (SARS-CoV-2 [1]; [10]) [nM] | EC90 (SARS-CoV-2 [1]; [11]) [nM] | EC50 (SARS-CoV-2 [1]; [12]) [nM] | EC50 (SARS-CoV-2 [1]; [13]) [nM] | EC90 (SARS-CoV-2 [2]; Severe acute respiratory syndrome coronavirus 2, Vero C1008, read-out: EC90 (infectious viral titer)) [nM] | EC90 (SARS-CoV-2 [2]; Severe acute respiratory syndrome coronavirus 2, Vero C1008, read-out: EC90 (qRT-PCR)) [nM] | cytotoxicity (Vero E6 cells [3]) | cytotoxicity (Calu3 2B4 cells [4]) | RDV-TP at 24 h (Calu3 2B4 cells [5]) | inhibition of infectious virus production (SARS-CoV-2 [6]) | difference in RDV-TP between the two HAE donor cultures (HAE cultures [7]) | RDV-TP at 24 h (Vero E6 cells [8]; African green monkey) | RDV-TP levels in Vero E6 cells lower than in HAE cultures (Vero E6 cells [8]; African green monkey) [fold] | RDV-TP levels in Vero E6 cells lower than in Calu3 2B4 (Vero E6 cells [8]; African green monkey (Vero E6) and human (Calu3 2B4)) | cytotoxicity (HAE cultures [9]) |
| --- | --- | --- | --- | --- | --- | --- | --- | --- | --- | --- | --- | --- | --- | --- | --- |
| N#C[C@@]1(c2ccc3c(N)ncnn23)O[C@H](CO)[C@@H](O)[C@H]1O [GS-441524] | 1340 | 1370 | 1090 | 620 | 710 | 800 | No significant cytotoxicity | No significant cytotoxicity | 0.85 ± 0.16 ^e pmol/million cells | – | – | – | – | – | – |
| CCC(CC)COC(=O)[C@H](C)N[P@](=O)(OC[C@H]1O[C@@](C#N)(c2ccc3c(N)ncnn23)[C@H](O)[C@@H]1O)Oc1ccccc1 [RDV, Remdesivir] | 2480 | 1280 | 600 | 280 | – | – | No significant cytotoxicity | No significant cytotoxicity | – | more than 100 fold | less than 3 fold | 0.50 ± 0.15 ^d pmol/million cells | ~20 | approximately 4 fold | did not cause cytotoxicity |
